The target of one data set is T1, CYP2D6 (Homo sapiens, UniProt P10635).
T1 construct: purchased BD Gentest (Woburn, MA); host or cells: baculovirus-infected insect cells
The experiment in a line: Oxidation by recombinant human CYP2D6. The following applies: for Percentage of oxidation (unchanged drug disappearance) by CYP2D6: 100 pmol/mL, 5 μmol/L, 30 min, NADPH. It is filed as in vitro ADME. The source says: Recombinant human CYPs (Supersomes™; BD Gentes, Woburn, MA: CYP1A1, CYP1A2, CYP2A6, CYP2B6, CYP2C8, CYP2C9, CYP2C18, CYP2C19, CYP2D6, CYP2E1, CYP3A4 and CYP3A5), FMOs (Supersomes™: FMO1, FMO3, FMO5), MAOs (Supersomes™: MAO-A and MAO-B), and UGTs (Supersomes™: UGT1A1, UGT1A3, UGT1A4, UGT1A6, UGT1A7, UGT1A8, UGT1A9, UGT1A10, UGT2B4, UGT2B7, UGT2B15, and UGT2B17) expressed in baculovirus-infected insect cells and control microsomes from insect cells infected with wild-type baculovirus were all obtained from BD Gentest (Woburn, MA).
For oxidative pathways, the assay mixture was composed of human liver microsomes (1 mg·m·L^−1) or microsomes of baculovirus-infected cells expressing human enzymes (100 pmol·mL^−1 for CYPs and 1 mg·mL^−1 for FMOs and MAOs), nicotinamide adenine dinucleotide phosphate reduced form (NADPH) (1 mmol/L), 100 mmol/L potassium phosphate (pH 7.4), and 5 μmol/L of the investigated compound dissolved in DMSO in a final volume of 500 μL.
The final concentration of DMSO in the reaction mixture was less than 1% (v/v). Initial rate conditions with respect to time and protein concentration for both the disappearance of unchanged drug and the formation of respective metabolites were established in preliminary studies. The enzyme reaction was initiated by addition of NADPH (10 mmol/L aqueous solution) to achieve a final concentration of 1 mmol/L for oxidative CYP- and FMO-dependent reactions or by the drug for MAO-dependent reactions, incubated at 37°C and stopped after 0–30 min by addition of one volume of ice-cold acetonitrile.
In human liver microsomes and recombinant isoforms, the percentage of metabolism was determined on the basis of unchanged drug disappearance, using the following equation [drawing 1] where UDt = 30 min represents the unchanged drug peak area after a 30-min incubation period and UDt = 0, the unchanged drug peak area at t = 0.
To identify the specific isoforms that are capable of oxidizing dronedarone and its metabolites, assays were performed using c-DNA-expressed isoforms belonging to CYP- (CYP1A1, -1A2, -2A6, -2B6, -C8, -2C9, -2C18, -2C19, -2D6, -2E1, -3A4, and -3A5), FMO- (FMO-1, -3, and -5) and MAO- (MAO-A and MAO-B) families.
Figure 5 Contribution of individual CYPs, FMOs and MAOs to the oxidation of dronedarone and its metabolites. […] Unchanged drugs were quantified by LC/MS-MS relative to the synthetic references as described in Materials and Methods. Data are expressed as the percentage of oxidation.

The subject of a further data set is Total CYPs. The experiment in a line: Contribution of total CYPs to hepatocyte clearance (1-aminobenzotriazole inhibitory effect). It is filed as in vitro ADME, human. Conditions: for Effect of ABT on metabolism in hepatocytes (words): 1 mmol/L ABT, 5 μmol/L drug; for fm Total CYPs, Mean ± SD: mean of hepatocyte preparations. On the procedure: Experiments were performed in 48-well plastic plates coated with rat tail Collagen type I. Plates were seeded with 0.16 × 10^5 hepatocytes per well in a final volume of 0.2 mL and incubated at 37°C under a 95% humidified air and 5% CO2 atmosphere. After 3 h during which cells were allowed to attach, the medium was renewed with 0.1 mL serum-free medium. Then, the investigated drug or metabolic probe(s) were added directly to the incubation medium in the absence or the presence of inhibitors such as either ketoconazole as a specific and potent CYP3A inhibitor (3 μmol/L final concentration), clorgyline (0.25 μmol/L final concentration) as a potent MAO-A inhibitor or ABT as a potent but nonselective CYP isoforms inhibitor (1 mmol/L final concentration) (Fabre et al. [1988]; Bourrié et al. [1996]; Klieber et al. [2008]). Regardless of the final concentration investigated, the final solvent (DMSO) concentration never exceeded 0.2% (v/v).
To determine the metabolism of the different compounds (metabolic probes, dronedarone, N-debutyl-dronedarone, propanoic acid-dronedarone, phenol-dronedarone, and C-dealkyl-dronedarone), kinetic studies were performed over 0–24 h. For each time point, 0.1 mL of acetonitrile was added to the specific well for protein precipitation, and both extracellular medium and the cell fraction were scraped together. Cell extracts were transferred to a glass tube and stored at −20°C until analysis. Before analysis, cell homogenates were sonicated for a few seconds, homogenized and centrifuged at 6000 g for 10 min. Supernatant fluids were then analyzed for the different drugs and their specific metabolites.
The fraction metabolized (fm) by MAO, CYP3A or total CYPs was determined using the following equation: [drawing 3] where: kei is the elimination rate constant (expressed in h^−1) in the presence of the inhibitor.
The kinetics of drug disappearance were investigated using four different cryopreserved human hepatocyte preparations in primary cultures following incubation with either dronedarone or its metabolites at a concentration of 5 μmol/L. Incubations were performed either in the absence, that is control conditions, or in the presence of enzyme system inhibitors such as 3 μmol/L ketoconazole (specific and potent inhibitor of CYP3A4/5), 1 mmol/L ABT (a potent and […] inhibitor of total CYPs), or 0.25 μmol/L clorgyline (a potent MAO-A inhibitor) (Dorris [1982]). Kinetic studies were performed over 24 h.

[1] abbreviates: BD-91, 1 mmol/L 1-aminobenzotriazole.
Where [2] appears, read: BD-296, 1 mmol/L 1-aminobenzotriazole.
The mark [3] stands for this setting: HU-1358, 1 mmol/L 1-aminobenzotriazole.
[4] abbreviates: IVT-IBG, 1 mmol/L 1-aminobenzotriazole.

T1 sequence (P10635 whole entry): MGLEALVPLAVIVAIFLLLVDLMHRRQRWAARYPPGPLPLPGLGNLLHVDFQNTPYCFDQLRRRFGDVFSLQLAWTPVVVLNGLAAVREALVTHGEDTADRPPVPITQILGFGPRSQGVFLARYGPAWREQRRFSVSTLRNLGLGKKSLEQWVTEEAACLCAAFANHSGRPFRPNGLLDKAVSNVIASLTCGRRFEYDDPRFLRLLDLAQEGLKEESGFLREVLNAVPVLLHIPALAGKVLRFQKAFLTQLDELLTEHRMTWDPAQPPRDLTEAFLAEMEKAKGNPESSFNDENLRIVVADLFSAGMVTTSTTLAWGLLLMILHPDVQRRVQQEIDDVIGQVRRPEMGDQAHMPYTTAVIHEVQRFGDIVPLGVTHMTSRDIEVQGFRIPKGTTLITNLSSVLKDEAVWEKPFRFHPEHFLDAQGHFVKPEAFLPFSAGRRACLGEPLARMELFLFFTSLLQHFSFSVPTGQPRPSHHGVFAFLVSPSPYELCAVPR

With `CCCCNCCCOc1ccc(C(=O)c2c(CCCC)oc3ccc(NS(C)(=O)=O)cc23)cc1` [N-debutyl-dronedarone], on CYP2D6, the “Percentage of oxidation (unchanged drug disappearance) by CYP2D6” value is reported as 55%. Further, the “Metabolite formed, as percent of initial dronedarone concentration, with CYP2D6” value at CYP2D6 (5 μmol/L dronedarone, end of 30-min incubation) is recorded as “less than 1%”. In the data set with Total CYPs, the “Effect of ABT on metabolism in hepatocytes (words)” value (“Effect of ABT on metabolism” for short) is given as “moderately decreased its metabolic rate”. Moreover, the “fm Total CYPs” value amounted to 67% with Total CYPs (setting [1]), 48% in the data set with Total CYPs (setting [2]), 51% in the data set with Total CYPs (setting [3]) and 54% in the data set on Total CYPs (setting [4]). Further, in the data set with Total CYPs (1 mmol/L 1-aminobenzotriazole), the “fm Total CYPs, Mean ± SD” value came out at 55 ± 7%.

Turning to `CCCCN(CCCC)CCCOc1ccc(C(=O)O)cc1` [C-dealkyl-dronedarone], the “Effect of ABT on metabolism” value in the data set on Total CYPs is reported as “no effect”.

Regarding `CCCCc1oc2ccc(NS(C)(=O)=O)cc2c1C(=O)c1ccc(O)cc1` [Phenol-dronedarone], at CYP2D6, the “Percentage of oxidation (unchanged drug disappearance) by CYP2D6” value is listed as 94%. Moreover, the “Effect of ABT on metabolism” value is on record as “did not contribute” with Total CYPs and “no significant effect” with Total CYPs (listed as phenol-dronedarone).

With `CCCCc1oc2ccc(NS(C)(=O)=O)cc2c1C(=O)c1ccc(OCCC(=O)O)cc1` [Propanoic acid-dronedarone], the “Effect of ABT on metabolism” value with Total CYPs is listed as “potently inhibited”. The “fm Total CYPs” value is 87% with Total CYPs (setting [1]), 92% in the data set with Total CYPs (setting [2]), 91% in the data set on Total CYPs (setting [3]) and 89% with Total CYPs (setting [4]). In addition, in the data set on Total CYPs (1 mmol/L 1-aminobenzotriazole), the “fm Total CYPs, Mean ± SD” value turned out to be 90 ± 3%.

On to `CCCCc1oc2ccc(NS(C)(=O)=O)cc2c1C(=O)c1ccc(OCCCN(CCCC)CCCC)cc1.Cl` [Dronedarone, N-(2-Butyl-3-(4-(3-(dibutylamino)propoxy)benzoyl)-5-benzofuranyl)methanesulfonamide, hydrochloride], for which the “Percentage of oxidation (unchanged drug disappearance) by CYP2D6” value at CYP2D6 is reported as 50%. Further, the “Effect of ABT on metabolism” value in the data set on Total CYPs is “predominant inhibitory effect”. Also, the “fm Total CYPs” value amounted to 98% in the data set on Total CYPs (setting [1]), 99% in the data set on Total CYPs (setting [2]), 98% with Total CYPs (setting [3]) and 95% in the data set on Total CYPs (setting [4]). Moreover, the “fm Total CYPs, Mean ± SD” value with Total CYPs (1 mmol/L 1-aminobenzotriazole) came to 98 ± 2%.

For the origin of these results see article PMC4186413, “Identification of metabolic pathways and enzyme systems involved in the in vitro human hepatic metabolism of dronedarone, a potent new oral antiarrhythmic drug” (Pharmacology Research & Perspectives, 2014).
